Patent publication US20050261331A1, “Substituted pyrrolopyridines” (priority 2002, published 2005)
Where a name gives a salt, the structure may show the parent alone.

Target: T1, recombinant human Itk kinase domain fused with GST (Homo sapiens, UniProt Q08881)
T1 construct: recombinant human Itk kinase domain fused with GST; made in house; host or cells: High Five insect cells
T1 sequence (Q08881 363-615 limits assumed): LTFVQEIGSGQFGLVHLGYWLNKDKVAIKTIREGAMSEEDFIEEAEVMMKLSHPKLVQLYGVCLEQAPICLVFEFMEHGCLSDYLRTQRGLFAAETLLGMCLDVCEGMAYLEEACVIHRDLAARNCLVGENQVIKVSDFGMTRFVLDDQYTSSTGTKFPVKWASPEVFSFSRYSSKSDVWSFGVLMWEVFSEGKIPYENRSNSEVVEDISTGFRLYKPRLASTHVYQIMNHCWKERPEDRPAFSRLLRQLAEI
Assay: Itk LANCE TRF Assay
Type: biochemical
Details: 160 ng/well Itk, 2 μM peptide substrate, 50 μM ATP, 50 minutes RT; read-out: Inhibition of Kinase Itk (IC50 μM)
Procedure: The Itk kinase assay utilized recombinant human Itk kinase domain fused with GST (Glutathione S-Transferase). The protein was expressed in High five insect cells, purified in one step on an affinity chromatography glutathione column and stored in 50 mM Tris/HCl (pH 7.6), 150 mM NaCl, 5% (w/v) mannitol, 1 mM DTT, 30% glycerol at −70° C. The kinase substrate used in the assay was a biotinylated peptide derived from the Src-optimal substrate (Nair et al, J. Med. Chem., 38: 4276, 1995; biotin-AEEEIYGEFEAKKKK).
The assay additions were as follows: Test compounds (or controls; 1 μL in 100% DMSO) were added to black 96-well flat-bottomed plates (Greiner 655076) followed by 20 μL Itk in assay buffer and the reaction was started by adding 20 μL ATP and peptide substrate in assay buffer. The assay buffer constitution during phosphorylation was: 50 mM HEPES (pH 6.8), 10 mM MgCl2, 0.015% Brij 35, 1 mM DTT, 10% glycerol, 160 ng/well Itk, 2 μM peptide substrate and 50 μM ATP. The assay was stopped after 50 minutes (RT) by adding 150 μL ice-cold Stop solution (50 mM Tris/HCl, pH 7.5, 10 mM EDTA, 0.9% NaCl and 0.1% BSA) together with LANCE reagents (2 nM PT66-Eu^3+, Wallac AD0069 and 5 μg/ml Streptavidin-APC, Wallac AD0059. Both concentrations were final in stopped assay solution). The plates were measured on a Wallac 1420 Victor 2 instrument with TRF settings after 1 h incubation, and the ratio (665 signal/615 signal)*10000 was used to calculate the inhibition values. IC50 values were determined using XLfit.

Row | IC50 [µM] | Compound
1 | 0.01 | CN(C)CCCOc1ccc(-c2c(-c3ccco3)[nH]c3ncc(Br)cc23)cc1 [Example 5, 3-{4-[S-Bromo-2-(2-furyl)-1H-pyrrolo[2,3-b]pyridin-3-yl]phenoxy}-N,N-dimethylpropan-1-amine trifluoroacetate]
2 | 0.03 | CC(=O)NCc1ccc(-c2c(-c3ccccc3)[nH]c3ncc(Br)cc23)o1 [Example 13, N-[5-(5-Bromo-2-phenyl-1-H-pyrrolo[2,3-b]pyridin-3-yl)-furan-2-ylmethyl]-acetamide]
3 | 0.44 | N#Cc1cnc2[nH]c(-c3ccccc3)c(-c3ccc(N4CCOCC4)cc3)c2c1 [Example 44, 3-(4-Morpholin-4-ylphenyl)-2-phenyl-1H-pyrrolo[2,3-b]pyridine-5-carbonitrile]
4 | 0.01 | Cc1c(Br)cnc2[nH]c(-c3ccc(OCCCN(C)C)cc3)c(-c3cccnc3)c12 [Example 55, {3-[4-(5-Bromo-4-methyl-3-pyridin-3-yl-1H-pyrrolo[2,3-b]pyridin-2-yl)phenoxy]propyl}dimethylamine]
5 | 0.04 | CN(C)CCCN(C)c1ccc(-c2[nH]c3ncc(Cl)cc3c2-c2cncnc2)cn1 [Example 61, N-[5-(5-Chloro-3-pyrimidin-5-yl-1H-pyrrolo[2,3-b]pyridin-2-yl]-N,N′,N′-trimethylpropane-1,3-diaminetrihydrochloride]

Test system: not given
Assay: not given
Details: not given

Row | melting point [°C] | Compound
6 | 105 to 107 | Brc1cnc2[nH]c(-c3ccccc3)c(-c3ccco3)c2c1 [Example 12, 5-Bromo-3-furan-2-yl-2-phenyl-1-H-pyrrolo[2,3-b]pyridine]
7 | 176 to 176.5 | CC(=O)NCc1ccc(-c2c(-c3ccccc3)[nH]c3ncc(Br)cc23)o1 [Example 13, N-[5-(5-Bromo-2-phenyl-1-H-pyrrolo[2,3-b]pyridin-3-yl)-furan-2-ylmethyl]-acetamide]
